# From the supplement of paper PMC10307832
# Columns and labels:
# Assay in all cases: relative viability (nuclei count vs DMSO), 5 days (fraction); higher = more cells survive
# Neratinib + Bortezomib = compound: CCOc1cc2ncc(C#N)c(Nc3ccc(OCc4ccccn4)c(Cl)c3)c2cc1NC(=O)/C=C/CN(C)C [Neratinib] + CC(C)C[C@H](NC(=O)[C@H](Cc1ccccc1)NC(=O)c1cnccn1)B(O)O [Bortezomib] (partner 0.002 µM)
# Summary of the method: (§1)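 After 5 days of treatment, lung cancer cells in 1536-well plates were fixed and stained in a single step (final 0.05% Triton X-100, 1% formaldehyde, 1 ug/ml Hoechst) and their nuclei counted on 4× images. Treatment had been applied by pin tool the day after seeding as one drug alone or as a fixed anchor-drug dose with five library-drug doses (not always all listed) in √10 steps. Relative viability is the nuclei count of treated wells divided by that of vehicle wells, and values are medians of duplicate plates.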
# Neratinib + Tozasertib = compound: CCOc1cc2ncc(C#N)c(Nc3ccc(OCc4ccccn4)c(Cl)c3)c2cc1NC(=O)/C=C/CN(C)C [Neratinib] + Cc1cc(Nc2cc(N3CCN(C)CC3)nc(Sc3ccc(NC(=O)C4CC4)cc3)n2)n[nH]1 [Tozasertib] (partner 0.1 µM)
# Summary of the method: as §1
# Neratinib + AZD7762 = compound: CCOc1cc2ncc(C#N)c(Nc3ccc(OCc4ccccn4)c(Cl)c3)c2cc1NC(=O)/C=C/CN(C)C [Neratinib] + NC(=O)Nc1cc(-c2cccc(F)c2)sc1C(=O)N[C@H]1CCCNC1 [AZD7762] (partner 0.2 µM)
# Summary of the method: as §1
# Neratinib + Decitabine = compound: CCOc1cc2ncc(C#N)c(Nc3ccc(OCc4ccccn4)c(Cl)c3)c2cc1NC(=O)/C=C/CN(C)C [Neratinib] + Nc1ncn([C@H]2C[C@H](O)[C@@H](CO)O2)c(=O)n1 [Decitabine] (partner 2 µM)
# Summary of the method: as §1
Cell Line,relative viability (Neratinib + Bortezomib; first compound 0.01 µM),relative viability (Neratinib + Bortezomib; first compound 0.03162 µM),relative viability (Neratinib + Bortezomib; first compound 0.1 µM),relative viability (Neratinib + Bortezomib; first compound 0.3162 µM),relative viability (Neratinib + Bortezomib; first compound 1 µM),relative viability (Neratinib + Tozasertib; first compound 0.01 µM),relative viability (Neratinib + Tozasertib; first compound 0.03162 µM),relative viability (Neratinib + Tozasertib; first compound 0.1 µM),relative viability (Neratinib + Tozasertib; first compound 0.3162 µM),relative viability (Neratinib + Tozasertib; first compound 1 µM),relative viability (Neratinib + AZD7762; first compound 0.01 µM),relative viability (Neratinib + AZD7762; first compound 0.03162 µM),relative viability (Neratinib + AZD7762; first compound 0.1 µM),relative viability (Neratinib + AZD7762; first compound 0.3162 µM),relative viability (Neratinib + Decitabine; first compound 0.01 µM),relative viability (Neratinib + Decitabine; first compound 0.03162 µM),relative viability (Neratinib + Decitabine; first compound 0.1 µM),relative viability (Neratinib + Decitabine; first compound 0.3162 µM),relative viability (Neratinib + Decitabine; first compound 1 µM),relative viability (Neratinib + AZD7762; first compound 1 µM)
ABC-1,0.297,0.348,0.379,0.3,0.312,0.206,0.139,0.177,0.146,0.185,0.955,0.659,0.682,0.779,1.21,1.31,1.23,1.07,0.746,–
NCI-H650,0.94,1.07,1.08,–,0.852,0.749,0.829,0.654,0.668,0.583,1.02,1.09,–,1,0.321,0.347,0.328,0.326,0.345,1.3
EPLC-272H,0.841,0.994,0.881,0.775,0.65,–,0.204,0.267,0.269,0.203,0.209,0.193,0.112,0.181,0.407,0.444,0.332,0.331,0.344,0.205
NCI-H647,–,0.914,0.586,0.558,0.664,0.281,0.333,0.155,0.195,0.174,0.532,0.568,0.466,0.457,0.438,0.453,0.364,0.358,0.371,0.277
HCC-827,1.05,1.07,0.876,1.13,0.376,0.414,0.428,0.396,0.268,0.136,0.217,0.236,0.132,0.129,0.375,0.354,0.271,0.243,0.217,0.132
ChaGo-K-1,1.06,1.04,0.873,0.745,0.912,0.233,0.224,0.221,0.215,0.229,0.93,0.879,0.648,0.842,0.517,0.581,0.517,0.526,0.534,0.788
NCI-H23,0.964,1.31,1.07,1.13,0.821,0.371,0.342,0.33,0.298,0.215,0.253,0.329,0.25,0.217,0.325,0.298,0.289,0.404,0.264,0.191
EMC-BAC-2,1.25,1.13,0.979,0.99,0.889,0.326,0.352,0.317,0.314,0.188,1.19,1.19,1,1.08,1.12,1,0.942,0.988,0.929,0.974
